What is called IC50 is the point on the concentration scale where inhibition reaches its midpoint.

The source made the active and inactive calls. How the calls were made is not given here.

One experiment deals with Glycogen synthase kinase-3 beta splice variant X1 (Bos taurus, UniProt A0A059UE90). Description: (§1) Inhibition of bovine cerebral TPK1 assessed as reduction in P-GS1 phosphorylation using [32gammaP]ATP incubated for 2 hrs by liquid scintillation counting method.
Regarding `Cn1c(N2CCO[C@@H](c3cc4ccccc4o3)C2)nc(-c2ccncc2F)cc1=O`, the IC50 came to 7.9 nM. Consider `Cn1c(N2CCO[C@@H](c3ccc(OCCN4CCOCC4)cc3)C2)nc(-c2ccncc2F)cc1=O`, for which the IC50 is 1.1 nM. With `Cn1c(N2CCO[C@@H](c3ccc(NC(=O)C(C)(C)C)cc3)C2)nc(-c2ccncc2F)cc1=O`, the IC50 amounted to 4.2 nM. On the same count and under the same terms, in the case of `Cn1c(N2CCO[C@@H](c3ccc(NC(=O)C4CCCCC4)cc3)C2)nc(-c2ccncc2F)cc1=O` it was 2.2 nM; in that of `Cn1c(N2CCN[C@@H](c3ccc(-c4ncon4)cc3)C2)nc(-c2ccncc2F)cc1=O`, 4.8 nM; in that of `CN(c1ccc([C@H]2CN(c3nc(-c4ccncc4F)cc(=O)n3C)CCO2)cc1)[C@@H]1CCOC1`, 3.9 nM. With `Cn1c(N2CCO[C@@H](c3ccc(C(=O)N4CCOCC4)cc3)C2)nc(-c2ccncc2F)cc1=O`, the IC50 stood at 7.4 nM. On to `Cn1c(N2CCN[C@@H](c3ccc(N4CCCCC4)cc3)C2)nc(-c2ccncc2F)cc1=O`, for which the IC50 stood at 3.7 nM. With `Cn1c(N2CCO[C@@H](c3ccc(N[C@@H]4CCOC4)cc3)C2)nc(-c2ccncc2F)cc1=O`, the IC50 stood at 2.7 nM. Take `CC(=O)Nc1cccc([C@H]2CN(c3nc(-c4ccncc4F)cc(=O)n3C)CCO2)c1`: the IC50 came out at 4.1 nM.

Consider `Cc1cc(C2CN(c3nc(-c4ccncc4F)cc(=O)n3C)CCO2)ccc1Br` (stereo not given), for which the IC50 came to 0.51 nM. Still for that read-out and setting: for `Cn1c(N2CCO[C@@H](c3ccc(N4CCC(N5CCCC5)CC4)cc3)C2)nc(-c2ccncc2F)cc1=O` the value was 1.7 nM; for `COc1ccc(NC(C)=O)cc1[C@H]1CN(c2nc(-c3ccncc3F)cc(=O)n2C)CCO1`, 0.48 nM; for `CN(c1ccc([C@H]2CN(c3nc(-c4ccncc4F)cc(=O)n3C)CCO2)cc1)c1ccccn1`, 5.4 nM. Still for that read-out and setting: in the case of `Cn1c(N2CCO[C@@H](c3c(F)cccc3Cl)C2)nc(-c2ccncc2F)cc1=O` it was 1.4 nM. On the same count and under the same terms, for `COc1ccc(-c2ccc([C@H]3CN(c4nc(-c5ccncc5F)cc(=O)n4C)CCN3)cc2)cc1` the value was 0.73 nM.

For the molecule `Cc1nc(-c2ccc([C@H]3CN(c4nc(-c5ccncc5F)cc(=O)n4C)CCN3)cc2)no1`, the IC50 is 2.9 nM.

Take `CN(C)C(=O)Nc1ccc([C@H]2CN(c3nc(-c4ccncc4F)cc(=O)n3C)CCO2)cc1`: the IC50 is 11 nM. Same read-out and setting: for `CC(C)Oc1ccc(-c2ccc([C@H]3CN(c4nc(-c5ccncc5F)cc(=O)n4C)CCN3)cc2)cc1` the value was 1.2 nM; for `CN(C)CC(=O)Nc1ccc([C@H]2CN(c3nc(-c4ccncc4F)cc(=O)n3C)CCO2)cc1`, 0.27 nM. Still for that read-out and setting: for `COC(=O)Nc1ccc([C@H]2CN(c3nc(-c4ccncc4F)cc(=O)n3C)CCO2)cc1` the value was 1.2 nM; for `Cn1c(N2CCN[C@@H](c3ccc(N4CCN(c5ccccc5)CC4)cc3)C2)nc(-c2ccncc2F)cc1=O`, 0.53 nM. On the same count and under the same terms, for `Cn1c(N2CCOC(c3ccc4c(c3)CCC(=O)N4)C2)nc(-c2ccncc2F)cc1=O` (racemic) the value was 1.2 nM; for `CC(=O)N1CCC(Oc2ccc([C@H]3CN(c4nc(-c5ccncc5F)cc(=O)n4C)CCO3)cc2)CC1`, 6.4 nM. Turning to `Cn1c(N2CCO[C@@H](c3ccc(N)cc3)C2)nc(-c2ccncc2F)cc1=O`, the IC50 amounted to 2.9 nM.

Another experiment has as its target Glycogen synthase kinase-3 beta splice variant X1 (Bos taurus) (UniProt A0A059UE90). Described as §1.
On to `Cn1c(N2CCO[C@@H](c3ccc(CO)cc3)C2)nc(-c2ccncc2F)cc1=O`, for which the inhibition entry is “Active”.

As for `Cn1c(N2CCO[C@@H](c3ccc(F)cc3)C2)nc(-c2ccncc2F)c(F)c1=O`, the inhibition result is “Active”. As for `Cn1c(N2CCO[C@@H](c3ccc(N4CCC4)cc3)C2)nc(-c2ccncc2F)cc1=O`, the inhibition result was “Active”.

As for `Cn1c(N2CCN[C@@H](c3ccc(N4CC[C@@H](O)C4)cc3)C2)nc(-c2ccncc2F)cc1=O`, the inhibition entry is “Active”. Regarding `Cn1c(N2CCO[C@@H](c3ccc(N4CC[C@@H](N5CCCC5)C4)cc3)C2)nc(-c2ccncc2F)cc1=O`, the inhibition result is “Active”.

The record behind these values is ChEMBL document CHEMBL3727346, “6-(pyridinyl)-4-pyrimidone derivates as tau protein kinase 1 inhibitors” (2011).
